Laboratory results: PubChem BioAssay (NCI)
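Abbreviation: GI50, concentration required for 50% inhibition of growth. TGI marks complete inhibition of growth.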

Experiments:
Assay in all cases: NCI-60 cell line screen, 384-well format
786-0 renal = system: 786-0 renal
A498 renal = system: A498 renal
A549 NSCLC = system: A549 NSCLC
ACHN renal = system: ACHN renal
BT-549 breast = system: BT-549 breast
CAKI-1 renal = system: CAKI-1 renal
CCRF-CEM leukemia = system: CCRF-CEM leukemia
COLO 205 colon = system: COLO 205 colon
DU-145 prostate = system: DU-145 prostate
EKVX NSCLC = system: EKVX NSCLC
HCC-2998 colon = system: HCC-2998 colon
HCT-15 colon = system: HCT-15 colon
HL-60(TB) leukemia = system: HL-60(TB) leukemia
HOP-62 NSCLC = system: HOP-62 NSCLC
HOP-92 NSCLC = system: HOP-92 NSCLC
HS 578T breast = system: HS 578T breast
HT29 colon = system: HT29 colon
IGROV1 ovarian = system: IGROV1 ovarian
KM12 colon = system: KM12 colon
M14 melanoma = system: M14 melanoma
MALME-3M melanoma = system: MALME-3M melanoma
MCF7 breast = system: MCF7 breast
MDA-MB-231 breast = system: MDA-MB-231 breast
MDA-MB-435 melanoma = system: MDA-MB-435 melanoma
MDA-MB-468 breast = system: MDA-MB-468 breast
MOLT-4 leukemia = system: MOLT-4 leukemia
NCI-H226 lung = system: NCI-H226 lung
NCI-H23 lung = system: NCI-H23 lung
NCI-H322M lung = system: NCI-H322M lung
NCI-H460 NSCLC = system: NCI-H460 NSCLC
NCI-H522 lung = system: NCI-H522 lung
NCI/ADR-RES ovarian = system: NCI/ADR-RES ovarian
OVCAR-3 ovarian = system: OVCAR-3 ovarian
OVCAR-4 ovarian = system: OVCAR-4 ovarian
OVCAR-5 ovarian = system: OVCAR-5 ovarian
OVCAR-8 ovarian = system: OVCAR-8 ovarian
PC-3 prostate = system: PC-3 prostate
RPMI-8226 leukemia = system: RPMI-8226 leukemia
RXF 393 renal = system: RXF 393 renal
SF-268 CNS = system: SF-268 CNS
SF-295 CNS = system: SF-295 CNS
SF-539 CNS = system: SF-539 CNS
SK-MEL-28 melanoma = system: SK-MEL-28 melanoma
SK-MEL-5 melanoma = system: SK-MEL-5 melanoma
SK-OV-3 ovarian = system: SK-OV-3 ovarian
SN12C renal = system: SN12C renal
SNB-19 CNS = system: SNB-19 CNS
SNB-75 CNS = system: SNB-75 CNS
SR leukemia = system: SR leukemia
SW-620 colon = system: SW-620 colon
T-47D breast = system: T-47D breast
TK-10 renal = system: TK-10 renal
U251 glioblastoma = system: U251 glioblastoma
UACC-257 melanoma = system: UACC-257 melanoma
UACC-62 melanoma = system: UACC-62 melanoma

For `Nc1nc(N)c(N=O)c(OCC2CCCCC2)n1`, the GI50 (786-0 renal) was 23.9 µM, the TGI (786-0 renal) was over 100 µM and the GI50 (A498 renal) was 5.34 µM. The TGI (A498 renal) was 25.3 µM, the GI50 (A549 NSCLC) was 17.6 µM and the TGI (A549 NSCLC) was 64.1 µM. The GI50 (ACHN renal) was 27.3 µM, the TGI (ACHN renal) was 85.9 µM and the GI50 (BT-549 breast) was 5.63 µM. It also gave a TGI (BT-549 breast) of 26.1 µM, a GI50 (CAKI-1 renal) of 8.55 µM and a TGI (CAKI-1 renal) of 31.6 µM. For the same compound, the GI50 (CCRF-CEM leukemia) was 4.9 µM, the TGI (CCRF-CEM leukemia) was 17 µM and the GI50 (COLO 205 colon) was 23.6 µM. The TGI (COLO 205 colon) was 56 µM, the GI50 (DU-145 prostate) was 13.2 µM and the TGI (DU-145 prostate) was over 100 µM. For the same compound, the GI50 (EKVX NSCLC) was 22.3 µM, the TGI (EKVX NSCLC) was 70.3 µM and the GI50 (HCC-2998 colon) was 15.1 µM. It also gave a TGI (HCC-2998 colon) of over 100 µM, a GI50 (HCT-15 colon) of 5.06 µM and a TGI (HCT-15 colon) of over 100 µM. The GI50 (HL-60(TB) leukemia) was 15 µM, the TGI (HL-60(TB) leukemia) was 32.8 µM and the GI50 (HOP-62 NSCLC) was 4.57 µM. The TGI (HOP-62 NSCLC) was 24.7 µM, the GI50 (HOP-92 NSCLC) was 9.41 µM and the TGI (HOP-92 NSCLC) was 36.9 µM. The GI50 (HS 578T breast) was 4.02 µM, the TGI (HS 578T breast) was 16.2 µM and the GI50 (HT29 colon) was 19.3 µM. It also gave a TGI (HT29 colon) of 90.6 µM, a GI50 (IGROV1 ovarian) of 4.21 µM and a TGI (IGROV1 ovarian) of 18.1 µM. It also gave a GI50 (KM12 colon) of 21.4 µM, a TGI (KM12 colon) of over 100 µM and a GI50 (M14 melanoma) of 11.4 µM. For the same compound, the TGI (M14 melanoma) was 79 µM, the GI50 (MALME-3M melanoma) was 8.62 µM and the TGI (MALME-3M melanoma) was 41.9 µM. For the same compound, the GI50 (MCF7 breast) was 5.22 µM, the TGI (MCF7 breast) was 91.6 µM and the GI50 (MDA-MB-231 breast) was 10.9 µM. The TGI (MDA-MB-231 breast) was 66 µM, the GI50 (MDA-MB-435 melanoma) was 25.4 µM and the TGI (MDA-MB-435 melanoma) was over 100 µM. For the same compound, the GI50 (MDA-MB-468 breast) was 3.29 µM, the TGI (MDA-MB-468 breast) was 10.8 µM and the GI50 (MOLT-4 leukemia) was 5.83 µM. It also gave a TGI (MOLT-4 leukemia) of 17.9 µM, a GI50 (NCI-H226 lung) of 10.9 µM and a TGI (NCI-H226 lung) of 54.1 µM. For the same compound, the GI50 (NCI-H23 lung) was 15.6 µM, the TGI (NCI-H23 lung) was 46.6 µM and the GI50 (NCI-H322M lung) was 24.6 µM. For the same compound, the TGI (NCI-H322M lung) was over 100 µM, the GI50 (NCI-H460 NSCLC) was 4.94 µM and the TGI (NCI-H460 NSCLC) was 26.7 µM. The GI50 (NCI-H522 lung) was 5.92 µM, the TGI (NCI-H522 lung) was 25.1 µM and the GI50 (NCI/ADR-RES ovarian) was 30.6 µM. The TGI (NCI/ADR-RES ovarian) was over 100 µM, the GI50 (OVCAR-3 ovarian) was 17.1 µM and the TGI (OVCAR-3 ovarian) was over 100 µM. For the same compound, the GI50 (OVCAR-4 ovarian) was 19.2 µM, the TGI (OVCAR-4 ovarian) was 49.3 µM and the GI50 (OVCAR-5 ovarian) was 17.2 µM. The TGI (OVCAR-5 ovarian) was 82.2 µM, the GI50 (OVCAR-8 ovarian) was 32.9 µM and the TGI (OVCAR-8 ovarian) was over 100 µM. The GI50 (PC-3 prostate) was 7.78 µM, the TGI (PC-3 prostate) was 49.4 µM and the GI50 (RPMI-8226 leukemia) was 4.88 µM. The TGI (RPMI-8226 leukemia) was 13.9 µM, the GI50 (RXF 393 renal) was 5.32 µM and the TGI (RXF 393 renal) was 27.1 µM. The GI50 (SF-268 CNS) was 21.2 µM, the TGI (SF-268 CNS) was 78.7 µM and the GI50 (SF-295 CNS) was 26 µM. For the same compound, the TGI (SF-295 CNS) was 87 µM, the GI50 (SF-539 CNS) was 18.5 µM and the TGI (SF-539 CNS) was 67.1 µM. The GI50 (SK-MEL-28 melanoma) was 22.3 µM, the TGI (SK-MEL-28 melanoma) was 97.1 µM and the GI50 (SK-MEL-5 melanoma) was 17.1 µM. For the same compound, the TGI (SK-MEL-5 melanoma) was 46.5 µM, the GI50 (SK-OV-3 ovarian) was 15 µM and the TGI (SK-OV-3 ovarian) was 37.6 µM. The GI50 (SN12C renal) was 13.6 µM, the TGI (SN12C renal) was 57.1 µM and the GI50 (SNB-19 CNS) was 31.1 µM. The TGI (SNB-19 CNS) was over 100 µM, the GI50 (SNB-75 CNS) was 4.38 µM and the TGI (SNB-75 CNS) was 19.7 µM. It also gave a GI50 (SR leukemia) of 3.46 µM, a TGI (SR leukemia) of 8.82 µM and a GI50 (SW-620 colon) of 45.9 µM. It also gave a TGI (SW-620 colon) of over 100 µM, a GI50 (T-47D breast) of 6.41 µM and a TGI (T-47D breast) of 33.1 µM. It also gave a GI50 (TK-10 renal) of 7.67 µM, a TGI (TK-10 renal) of 30 µM and a GI50 (U251 glioblastoma) of 17.2 µM. For the same compound, the TGI (U251 glioblastoma) was 58.8 µM, the GI50 (UACC-257 melanoma) was 23.6 µM and the TGI (UACC-257 melanoma) was over 100 µM. It also gave a GI50 (UACC-62 melanoma) of 14.5 µM and a TGI (UACC-62 melanoma) of 38.7 µM.
